System: MV-4-11 cells
Assay: Gene expression microarray analysis (Affymetrix PrimeView) and GSEA
Format: cell-based, human
Set-up: RFU PODN (11730768_x_at) / Fold change /veh PODN (11730768_x_at) / RFU LINC00158 (11744669_a_at) / Fold change /veh LINC00158 (11744669_a_at) / RFU DUSP10 (11751237_a_at) / Fold change /veh DUSP10 (11751237_a_at) / RFU ID3 (11757404_x_at) / Fold change /veh ID3 (11757404_x_at) / RFU PLEKHG5 (11737974_s_at) / Fold change /veh PLEKHG5 (11737974_s_at) / RFU LRRC4B (11730491_at) / Fold change /veh LRRC4B (11730491_at) / RFU GIMAP4 (11747438_a_at) / Fold change /veh GIMAP4 (11747438_a_at) / RFU KRT8 (11758183_x_at) / Fold change /veh KRT8 (11758183_x_at) / RFU CNN1 (11734310_a_at) / Fold change /veh CNN1 (11734310_a_at) / RFU VPS37D (11726825_at) / Fold change /veh VPS37D (11726825_at) / RFU C10orf10 (11716522_x_at) / Fold change /veh C10orf10 (11716522_x_at) / RFU KIR2DL2 /// KIR2DL4 /// KIR2DL5A /// KIR2DL5B /// KIR2DS1 /// KIR2DS2 /// KIR2DS3 /// KIR2DS4 /// KIR3DL3 /// KIR3DL3 /// KIR3DS1 (11738374_at) / Fold change /veh KIR2DL2 /// KIR2DL4 /// KIR2DL5A /// KIR2DL5B /// KIR2DS1 /// KIR2DS2 /// KIR2DS3 /// KIR2DS4 /// KIR3DL3 /// KIR3DL3 /// KIR3DS1 (11738374_at) / RFU C1QL1 (11718748_at) / Fold change /veh C1QL1 (11718748_at) / RFU TMPRSS4 (11747572_a_at) / Fold change /veh TMPRSS4 (11747572_a_at) / RFU HAMP (11756126_x_at) / Fold change /veh HAMP (11756126_x_at) / RFU RNFT2 (11725882_a_at) / Fold change /veh RNFT2 (11725882_a_at) / RFU NR4A2 (11747474_a_at) / Fold change /veh NR4A2 (11747474_a_at) / RFU ABCC12 (11746883_a_at) / Fold change /veh ABCC12 (11746883_a_at) / RFU TMEM136 (11760407_x_at) / Fold change /veh TMEM136 (11760407_x_at) / RFU CLDN22 /// WWC2 (11732394_at) / Fold change /veh CLDN22 /// WWC2 (11732394_at) / RFU HLA-DPB1 (11760878_x_at) / Fold change /veh HLA-DPB1 (11760878_x_at) / RFU SPINT1 (11716480_a_at) / Fold change /veh SPINT1 (11716480_a_at) / RFU GAP43 (11754022_s_at) / Fold change /veh GAP43 (11754022_s_at) / RFU A4GNT (11735810_at) / Fold change /veh A4GNT (11735810_at) / RFU PRB3 (11715151_x_at) / Fold change /veh PRB3 (11715151_x_at) / RFU TUBB4B (11761932_at) / Fold change /veh TUBB4B (11761932_at) / RFU CAPN14 (11732068_a_at) / Fold change /veh CAPN14 (11732068_a_at) / RFU TMCC2 (11721928_a_at) / Fold change /veh TMCC2 (11721928_a_at) / RFU IRGQ (11745062_a_at) / Fold change /veh IRGQ (11745062_a_at) / RFU FAM174B (11720279_a_at) / Fold change /veh FAM174B (11720279_a_at) / RFU TMPRSS4 (11748680_a_at) / Fold change /veh TMPRSS4 (11748680_a_at) / RFU FAM212B (11763350_a_at) / Fold change /veh FAM212B (11763350_a_at) / RFU PLEKHG5 (11743358_a_at) / Fold change /veh PLEKHG5 (11743358_a_at) / RFU ZSCAN30 (11745921_a_at) / Fold change /veh ZSCAN30 (11745921_a_at) / RFU CMKLR1 (11741424_a_at) / Fold change /veh CMKLR1 (11741424_a_at) / RFU LOC101060620 /// MAPK8IP1 (11723275_at) / Fold change /veh LOC101060620 /// MAPK8IP1 (11723275_at) / RFU SPTSSB (11747773_x_at) / Fold change /veh SPTSSB (11747773_x_at) / RFU PRSS12 (11739890_at) / Fold change /veh PRSS12 (11739890_at) / RFU BIN1 (11741810_x_at) / Fold change /veh BIN1 (11741810_x_at) / RFU WNT11 (11732464_a_at) / Fold change /veh WNT11 (11732464_a_at) / RFU C10orf10 (11716521_a_at) / Fold change /veh C10orf10 (11716521_a_at) / RFU C5orf56 (11738089_at) / Fold change /veh C5orf56 (11738089_at) / RFU CYB561 (11721691_x_at) / Fold change /veh CYB561 (11721691_x_at) / RFU ANKRD19P (11752326_a_at) / Fold change /veh ANKRD19P (11752326_a_at) / RFU OR2T12 /// OR2T33 /// OR2T8 (11738714_s_at) / Fold change /veh OR2T12 /// OR2T33 /// OR2T8 (11738714_s_at) / RFU VCAN (11748164_a_at) / Fold change /veh VCAN (11748164_a_at) / RFU JSRP1 (11732532_at) / Fold change /veh JSRP1 (11732532_at) / RFU KRTAP10-11 (11738290_x_at) / Fold change /veh KRTAP10-11 (11738290_x_at) / RFU MYO3A (11730013_a_at) / Fold change /veh MYO3A (11730013_a_at) / RFU EBF3 (11725865_a_at) / Fold change /veh EBF3 (11725865_a_at) / RFU CAMK2N1 (11719241_x_at) / Fold change /veh CAMK2N1 (11719241_x_at) / RFU C5orf56 (11738088_a_at) / Fold change /veh C5orf56 (11738088_a_at) / RFU OLFML3 (11715873_a_at) / Fold change /veh OLFML3 (11715873_a_at) / RFU LOC100653217 /// NTM (11731650_a_at) / Fold change /veh LOC100653217 /// NTM (11731650_a_at) / RFU MAPK11 (11762145_a_at) / Fold change /veh MAPK11 (11762145_a_at) / RFU FIZ1 (11724087_x_at) / Fold change /veh FIZ1 (11724087_x_at) / RFU OASL (11726364_x_at) / Fold change /veh OASL (11726364_x_at) / RFU SOX15 (11748057_x_at) / Fold change /veh SOX15 (11748057_x_at) / RFU CD79A (11719716_a_at) / Fold change /veh CD79A (11719716_a_at) / RFU HIST1H1D (11736915_at) / Fold change /veh HIST1H1D (11736915_at) / RFU CASKIN2 (11723855_a_at) / Fold change /veh CASKIN2 (11723855_a_at) / RFU LOC730098 (11760151_x_at) / Fold change /veh LOC730098 (11760151_x_at) / RFU OR4N2 (11742367_at) / Fold change /veh OR4N2 (11742367_at) / RFU PRRT2 (11749266_a_at) / Fold change /veh PRRT2 (11749266_a_at) / RFU SNX32 (11753110_a_at) / Fold change /veh SNX32 (11753110_a_at) / RFU CDHR5 (11726645_a_at) / Fold change /veh CDHR5 (11726645_a_at) / RFU RCAN1 (11760418_a_at) / Fold change /veh RCAN1 (11760418_a_at) / RFU FAM167A (11723789_a_at) / Fold change /veh FAM167A (11723789_a_at) / RFU FAM26E (11764081_at) / Fold change /veh FAM26E (11764081_at) / RFU ISYNA1 (11749810_s_at) / Fold change /veh ISYNA1 (11749810_s_at) / RFU ACY1 (11761880_at) / Fold change /veh ACY1 (11761880_at) / RFU 11764098_at / Fold change /veh 11764098_at / RFU SAMD14 (11745864_x_at) / Fold change /veh SAMD14 (11745864_x_at) / RFU NPB (11741838_a_at) / Fold change /veh NPB (11741838_a_at) / RFU TMPRSS6 (11731388_a_at) / Fold change /veh TMPRSS6 (11731388_a_at) / RFU KRTAP10-2 (11738614_at) / Fold change /veh KRTAP10-2 (11738614_at) / RFU ARHGAP8 /// PRR5-ARHGAP8 (11727945_x_at) / Fold change /veh ARHGAP8 /// PRR5-ARHGAP8 (11727945_x_at) / RFU KRTAP5-7 /// NADSYN1 (11734609_at) / Fold change /veh KRTAP5-7 /// NADSYN1 (11734609_at) / RFU RASL12 (11751679_a_at) / Fold change /veh RASL12 (11751679_a_at) / RFU CDKN2B (11736163_a_at) / Fold change /veh CDKN2B (11736163_a_at) / RFU PRF1 (11729649_at) / Fold change /veh PRF1 (11729649_at) / RFU, ZNF638 /// ZNF638-IT1 / Fold change vs veh, ZNF638 /// ZNF638-IT1 / RFU, PANK3 / Fold change vs veh, PANK3 / RFU, SH3YL1 / Fold change vs veh, SH3YL1 / RFU, ZEB2 / Fold change vs veh, ZEB2 / RFU, NRIP1 / Fold change vs veh, NRIP1 / RFU, PTTG1IP / Fold change vs veh, PTTG1IP / RFU, CAPN2 / Fold change vs veh, CAPN2 / RFU, MED14 / Fold change vs veh, MED14 / RFU, SNORA58 / Fold change vs veh, SNORA58 / RFU, C1orf63 / Fold change vs veh, C1orf63 / RFU, LRRFIP1 / Fold change vs veh, LRRFIP1 / RFU, NDUFAF7 / Fold change vs veh, NDUFAF7 / RFU, SLC12A2 / Fold change vs veh, SLC12A2 / RFU, IBTK / Fold change vs veh, IBTK / RFU, ESF1 / Fold change vs veh, ESF1 / Fold change vs veh, TMEM50B / RFU, TAOK1 / Fold change vs veh, TAOK1 / RFU, ACBD3 / Fold change vs veh, ACBD3 / RFU, TMA16 / Fold change vs veh, TMA16 / RFU, RWDD3 / Fold change vs veh, RWDD3 / RFU, BCAT1 / Fold change vs veh, BCAT1 / RFU, EDEM3 / Fold change vs veh, EDEM3 / RFU, TMEM33 / Fold change vs veh, TMEM33 / RFU, WDR75 / Fold change vs veh, WDR75 / RFU, AHCTF1 / Fold change vs veh, AHCTF1 / RFU, TFRC / Fold change vs veh, TFRC / RFU, ZDHHC17 / Fold change vs veh, ZDHHC17 / RFU, NOM1 / Fold change vs veh, NOM1 / RFU, ARL8B / Fold change vs veh, ARL8B / RFU, ZBTB11 / Fold change vs veh, ZBTB11 / RFU, TAMM41 / Fold change vs veh, TAMM41 / RFU, KIAA1704 /// LOC100996395 / Fold change vs veh, KIAA1704 /// LOC100996395 / RFU, ING1 / Fold change vs veh, ING1 / RFU, TRMT61B / Fold change vs veh, TRMT61B / RFU, FUBP3 / Fold change vs veh, FUBP3 / RFU, TP53 / Fold change vs veh, TP53 / RFU, TNKS2 / Fold change vs veh, TNKS2 / RFU, ZFP14 / Fold change vs veh, ZFP14 / RFU, ACTR2 / Fold change vs veh, ACTR2 / RFU, PPP3R1 / Fold change vs veh, PPP3R1 / RFU, PIK3R1 / Fold change vs veh, PIK3R1 / RFU, HNRNPA1 / Fold change vs veh, HNRNPA1 / RFU, RNF170 / Fold change vs veh, RNF170 / RFU, ZNF28 / Fold change vs veh, ZNF28 / RFU, RNGTT / Fold change vs veh, RNGTT / RFU, OGT / Fold change vs veh, OGT / RFU, BRD1 / Fold change vs veh, BRD1 / RFU, MARS / Fold change vs veh, MARS / RFU, ZNF655 / Fold change vs veh, ZNF655 / RFU, FAHD1 / Fold change vs veh, FAHD1 / RFU, BDP1 / Fold change vs veh, BDP1 / RFU, LRRCC1 / Fold change vs veh, LRRCC1 / RFU, ARID1A / Fold change vs veh, ARID1A / RFU, ZNF146 / Fold change vs veh, ZNF146 / RFU, ZNF330 / Fold change vs veh, ZNF330 / RFU, GPN3 / Fold change vs veh, GPN3 / RFU, C9orf123 / Fold change vs veh, C9orf123 / RFU, N4BP2L2 / Fold change vs veh, N4BP2L2 / RFU, ARFIP1 / Fold change vs veh, ARFIP1 / RFU, FAM179B / Fold change vs veh, FAM179B / RFU, BCL10 / Fold change vs veh, BCL10 / RFU, UHRF1BP1L / Fold change vs veh, UHRF1BP1L / RFU, BET1 / Fold change vs veh, BET1 / RFU, CNOT2 / Fold change vs veh, CNOT2 / RFU, ZNF268 / Fold change vs veh, ZNF268 / Fold change vs veh, ZNF507 / RFU, DGCR2 / Fold change vs veh, DGCR2 / RFU, WDSUB1 / Fold change vs veh, WDSUB1 / Fold change vs veh, HSP90B1 /// MIR3652 / RFU, ADSS / Fold change vs veh, ADSS / RFU, GK / Fold change vs veh, GK / RFU, ZNF148 / Fold change vs veh, ZNF148 / RFU, TAF9 / Fold change vs veh, TAF9 / RFU, SLC1A5 / Fold change vs veh, SLC1A5 / RFU, SLMO2 / Fold change vs veh, SLMO2 / RFU, ABCC4 / Fold change vs veh, ABCC4 / RFU, LOC101060439 /// RAP1B / Fold change vs veh, LOC101060439 /// RAP1B / RFU, RFX7 / Fold change vs veh, RFX7 / RFU, GTPBP10 / Fold change vs veh, GTPBP10 / RFU, CNEP1R1 / Fold change vs veh, CNEP1R1 / RFU, BIVM-ERCC5 /// ERCC5 / Fold change vs veh, BIVM-ERCC5 /// ERCC5 / RFU, ILF3 / Fold change vs veh, ILF3 / RFU 11762660_at / Fold change /veh 11762660_at / RFU VCAN (11757783_s_at) / Fold change /veh VCAN (11757783_s_at) / RFU DDX43 (11728927_at) / Fold change /veh DDX43 (11728927_at) / RFU KRT8 (11758188_x_at) / Fold change /veh KRT8 (11758188_x_at) / RFU NKD1 (11759106_at) / Fold change /veh NKD1 (11759106_at) / RFU SRD5A1 (11742802_a_at) / Fold change /veh SRD5A1 (11742802_a_at) / RFU TPSAB1 /// TPSB2 (11721975_s_at) / Fold change /veh TPSAB1 /// TPSB2 (11721975_s_at) / RFU GSTM3 (11746129_a_at) / Fold change /veh GSTM3 (11746129_a_at) / RFU IL23R (11737362_x_at) / Fold change /veh IL23R (11737362_x_at) / RFU TMEM51 (11727254_a_at) / Fold change /veh TMEM51 (11727254_a_at) / RFU PIWIL2 (11732686_x_at) / Fold change /veh PIWIL2 (11732686_x_at) / RFU ORM1 (11744905_x_at) / Fold change /veh ORM1 (11744905_x_at) / RFU CCDC152 (11743942_at) / Fold change /veh CCDC152 (11743942_at) / RFU ECM1 (11717891_a_at) / Fold change /veh ECM1 (11717891_a_at) / RFU IL23R (11748794_a_at) / Fold change /veh IL23R (11748794_a_at) / RFU TNFAIP8L3 (11732012_x_at) / Fold change /veh TNFAIP8L3 (11732012_x_at) / RFU MBOAT4 (11741988_at) / Fold change /veh MBOAT4 (11741988_at) / RFU 11764193_at / Fold change /veh 11764193_at / RFU TMEM53 (11763286_at) / Fold change /veh TMEM53 (11763286_at) / RFU MAGEB2 (11727129_at) / Fold change /veh MAGEB2 (11727129_at) / RFU TMEM200A (11744735_a_at) / Fold change /veh TMEM200A (11744735_a_at) / RFU CCDC152 (11751479_a_at) / Fold change /veh CCDC152 (11751479_a_at) / RFU FAM211A (11726209_a_at) / Fold change /veh FAM211A (11726209_a_at) / RFU RGS16 (11746705_a_at) / Fold change /veh RGS16 (11746705_a_at) / RFU VCAN (11755009_s_at) / Fold change /veh VCAN (11755009_s_at) / RFU RHOB (11743442_s_at) / Fold change /veh RHOB (11743442_s_at) / RFU RGS16 (11720943_a_at) / Fold change /veh RGS16 (11720943_a_at) / RFU RGS16 (11720944_at) / Fold change /veh RGS16 (11720944_at) / RFU, VPS4B / Fold change vs veh, VPS4B / RFU, CREB1 / Fold change vs veh, CREB1 / RFU, DNAJC13 / Fold change vs veh, DNAJC13 / RFU, GNAQ / Fold change vs veh, GNAQ / RFU, CDK5R1 / Fold change vs veh, CDK5R1 / RFU, ZRANB3 / Fold change vs veh, ZRANB3 / RFU, CUL4A / Fold change vs veh, CUL4A / RFU, CCNY / Fold change vs veh, CCNY / RFU, UFL1 / Fold change vs veh, UFL1 / RFU, COG3 / Fold change vs veh, COG3 / RFU, DIAPH2 / Fold change vs veh, DIAPH2 / RFU, SKA2 / Fold change vs veh, SKA2 / RFU, AFF3 / Fold change vs veh, AFF3 / RFU, LMF1 / Fold change vs veh, LMF1 / RFU, IPO11 / Fold change vs veh, IPO11 / RFU, DFFB / Fold change vs veh, DFFB / RFU, FOXP1 / Fold change vs veh, FOXP1 / RFU, CARD8 / Fold change vs veh, CARD8 / RFU, STRN3 / Fold change vs veh, STRN3 / RFU, ADK / Fold change vs veh, ADK / RFU, RASSF2 / Fold change vs veh, RASSF2 / RFU, WIPF1 / Fold change vs veh, WIPF1 / RFU, LARP1B / Fold change vs veh, LARP1B / RFU, RASA1 / Fold change vs veh, RASA1 / RFU, RB1 / Fold change vs veh, RB1 / RFU, PPFIA1 / Fold change vs veh, PPFIA1 / RFU, MAT2A / Fold change vs veh, MAT2A / RFU, CCT5 / Fold change vs veh, CCT5 / RFU, WDR92 / Fold change vs veh, WDR92 / RFU, CUX1 / Fold change vs veh, CUX1 / RFU, TTC7A / Fold change vs veh, TTC7A / RFU, TMEM135 / Fold change vs veh, TMEM135 / RFU, DEPTOR / Fold change vs veh, DEPTOR / RFU, CPM / Fold change vs veh, CPM / RFU, DNAJB6 / Fold change vs veh, DNAJB6 / RFU, CACNA2D3 / Fold change vs veh, CACNA2D3 / RFU, DTX4 / Fold change vs veh, DTX4 / RFU, TFCP2 / Fold change vs veh, TFCP2 / RFU, GMCL1 /// GMCL1P1 / Fold change vs veh, GMCL1 /// GMCL1P1 / RFU, AEBP2 / Fold change vs veh, AEBP2 / RFU, SNHG1 /// SNORD22 /// SNORD25 /// SNORD26 /// SNORD27 /// SNORD28 /// SNORD29 /// SNORD31 / Fold change vs veh, SNHG1 /// SNORD22 /// SNORD25 /// SNORD26 /// SNORD27 /// SNORD28 /// SNORD29 /// SNORD31 / Fold change (Aza/veh), C12orf56 (ProbeSet 11735607_a_at) / Fold change (ACY-1035/veh), C12orf56 (ProbeSet 11735607_a_at) / Fold change (Aza/veh), FGFR1OP (ProbeSet 11751329_s_at) / Fold change (ACY-1035/veh), FGFR1OP (ProbeSet 11751329_s_at) / Fold change (Aza/veh), VPS36 (ProbeSet 11739960_a_at) / Fold change (ACY-1035/veh), VPS36 (ProbeSet 11739960_a_at) / RFU SYPL1 (11715823_x_at) / Fold change /veh SYPL1 (11715823_x_at) / RFU IGFBP7 (11715501_s_at) / Fold change /veh IGFBP7 (11715501_s_at) / RFU REEP3 (11722064_at) / Fold change /veh REEP3 (11722064_at) / RFU IGLL1 (11728026_x_at) / Fold change /veh IGLL1 (11728026_x_at): dose or concentration left out as unconfirmed
Details: ProbeSet 11722463_a_at; LIST B

`Nc1ccc(-c2cccs2)cc1NC(=O)c1ccc2c(c1)cc(C1CC1)n2CCN1CCOCC1` [ACY-1035] was tested, and the “Fold change vs veh, TNKS2” value was 0.96.
